Experimental data taken from ChEMBL document CHEMBL5356971, “Optimization of the Antibacterial Spectrum and the Developability Profile of the Novel-Class Natural Product Corramycin” (J Med Chem, 2023).
Converted amounts (≈) assume the structure as drawn. The source made the active and inactive calls. The calls are words filed in the database; no cut-off is given here.

What was measured:
[1] = test system: Escherichia coli; assay: Antibacterial activity against […] assessed as bacterial growth inhibition incubated for 20 to 22 hrs by CLSI based analysis; format: functional; conditions: time 20-22 hrs
[2] = test system: Escherichia coli; assay: Antibacterial activity against multidrug-resistant Escherichia coli BAA2469 assessed as bacterial growth inhibition incubated for 20 to 22 hrs by CLSI based analysis; format: functional; conditions: time 20-22 hrs
[3] = test system: Escherichia coli; assay: Antibacterial activity against multidrug-resistant Escherichia coli IR45 assessed as bacterial growth inhibition incubated for 20 to 22 hrs by CLSI based analysis; format: functional; conditions: time 20-22 hrs
[4] = test system: Klebsiella pneumoniae; assay: Antibacterial activity against multidrug-resistant Klebsiella pneumoniae BAA2146 assessed as bacterial growth inhibition incubated for 20 to 22 hrs by CLSI based analysis; format: functional; conditions: time 20-22 hrs
[5] = test system: Klebsiella pneumoniae; assay: Antibacterial activity against multidrug-resistant Klebsiella pneumoniae B817 assessed as bacterial growth inhibition incubated for 20 to 22 hrs by CLSI based analysis; format: functional; conditions: time 20-22 hrs
[6] = test system: Pseudomonas aeruginosa; assay: Antibacterial activity against multidrug-resistant Pseudomonas aeruginosa PAO1 assessed as bacterial growth inhibition incubated for 20 to 22 hrs by CLSI based analysis; format: functional; conditions: time 20-22 hrs
[7] = test system: Pseudomonas aeruginosa; assay: Antibacterial activity against multidrug-resistant Pseudomonas aeruginosa PAO750 assessed as bacterial growth inhibition incubated for 20 to 22 hrs by CLSI based analysis; format: functional; conditions: time 20-22 hrs
[8] = test system: Enterobacter cloacae; assay: Antibacterial activity against multidrug-resistant Enterobacter cloacae BAA2341 assessed as bacterial growth inhibition incubated for 20 to 22 hrs by CLSI based analysis; format: functional; conditions: time 20-22 hrs
[9] = test system: Proteus mirabilis; assay: Antibacterial activity against multidrug-resistant Proteus mirabilis ATCC 7002 assessed as bacterial growth inhibition incubated for 20 to 22 hrs by CLSI based analysis; format: functional; conditions: time 20-22 hrs
[10] = test system: Citrobacter freundii; assay: Antibacterial activity against multidrug-resistant Citrobacter freundii ATCC 8090 assessed as bacterial growth inhibition incubated for 20 to 22 hrs by CLSI based analysis; format: functional; conditions: time 20-22 hrs
[11] = test system: Providencia stuartii; assay: Antibacterial activity against multidrug-resistant Providencia stuartii ATCC 49809 assessed as bacterial growth inhibition incubated for 20 to 22 hrs by CLSI based analysis; format: functional; conditions: time 20-22 hrs
[12] = Metabolic stability in mouse kidney assessed as parent compound remaining measured after 4 hrs by UPLC-MS analysis; format: ADME, tissue-based; conditions: read-out: Stability
[13] = Metabolic stability in mouse lung assessed as parent compound remaining measured after 4 hrs by UPLC-MS analysis; format: ADME, tissue-based; conditions: for remaining at 4 h: mouse lung, read-out: Stability
[14] = Metabolic stability in mouse lung assessed as parent compound remaining measured after 1 hrs by UPLC-MS analysis; format: ADME, tissue-based; conditions: for remaining at 1 h: mouse lung, read-out: Stability
[15] = Metabolic stability in mouse kidney assessed as parent compound remaining measured after 1 hrs by UPLC-MS analysis; format: ADME, tissue-based; conditions: read-out: Stability
[16] = test system: Escherichia coli; assay: Antibacterial activity against Escherichia coli ATCC 35218 assessed as reduction in microbial growth incubated for 20 to 22 hrs by CLSI based analysis; format: functional; conditions: time 20-22 hrs
[17] = test system: Klebsiella pneumoniae; assay: Antibacterial activity against Klebsiella pneumoniae ATCC 13883 assessed as reduction in microbial growth incubated for 20 to 22 hrs by CLSI based analysis; format: functional; conditions: time 20-22 hrs
[18] = test system: Acinetobacter baumannii; assay: Antibacterial activity against Acinetobacter baumannii ATCC 19606 assessed as reduction in microbial growth incubated for 20 to 22 hrs by CLSI based analysis; format: functional; conditions: time 20-22 hrs
[19] = test system: Escherichia coli; assay: Antibacterial activity against Escherichia coli ATCC 35218 infected in Swiss albino mouse model of Septicaemia infection assessed as log reduction in Septicaemia in blood at 20 mg/kg , iv preincubated for 4 hrs followed by bacterial infection and measured after 4 hrs post infection; format: functional; conditions: time 8 hrs
[20] = test system: Escherichia coli; assay: Antibacterial activity against Escherichia coli ATCC 35218 infected in Swiss albino mouse model of Septicaemia infection assessed as log reduction in Septicaemia in blood at 1 mg/kg , iv preincubated for 4 hrs followed by bacterial infection and measured after 4 hrs post infection; format: functional; conditions: time 8 hrs
[21] = test system: Escherichia coli; assay: Antibacterial activity against wild type Escherichia coli ATCC 35218 assessed as reduction in microbial growth incubated for 20 to 22 hrs by CLSI based analysis; format: functional; conditions: time 20-22 hrs
[22] = test system: Escherichia coli; assay: Antibacterial activity against Escherichia coli ATCC 35218 harboring SbmA assessed as reduction in microbial growth incubated for 20 to 22 hrs by CLSI based analysis; format: functional; conditions: time 20-22 hrs
[23] = test system: Klebsiella pneumoniae; assay: Antibacterial activity against wild type Klebsiella pneumoniae ATCC 13883 assessed as reduction in microbial growth incubated for 20 to 22 hrs by CLSI based analysis; format: functional; conditions: time 20-22 hrs
[24] = test system: Klebsiella pneumoniae; assay: Antibacterial activity against Klebsiella pneumoniae ATCC 13883 harboring SbmA assessed as reduction in microbial growth incubated for 20 to 22 hrs by CLSI based analysis; format: functional; conditions: time 20-22 hrs
[25] = test system: Acinetobacter baumannii; assay: Antibacterial activity against wild type Acinetobacter baumannii ATCC 19606 assessed as reduction in microbial growth incubated for 20 to 22 hrs by CLSI based analysis; format: functional; conditions: time 20-22 hrs
[26] = test system: Escherichia coli; assay: Antibacterial activity against Escherichia coli ATCC 25922 infected in Swiss albino mouse thigh infection model at 10 mg/kg, iv measured after 1 hr; format: functional, organism-based
[27] = test system: Klebsiella pneumoniae; assay: Antibacterial activity against Klebsiella pneumoniae ATCC 13883 infected in Swiss albino mouse thigh infection model at 10 mg/kg, iv measured after 1 hr; format: functional, organism-based
[28] = test system: Klebsiella pneumoniae; assay: Antibacterial activity against Klebsiella pneumoniae ATCC 13883 infected in Swiss albino mouse model of neutropenic lung infection at 10 mg/kg, iv pretreated for 1 hr followed by bacterial infection and measured after 5 hr post infection; format: functional, organism-based; conditions: time 6.0 hrs

Row | MIC [16] [µg/mL] | MIC [17] [µg/mL] | MIC [18] [µg/mL] | SMILES | remaining at 4 h [12] [%] | remaining at 4 h [13] [%] | remaining at 1 h [14] [%] | remaining at 1 h [15] [%] | Activity [20] [log10CFU] | MIC [21] [µg/mL] | MIC [22] [µg/mL] | MIC [23] [µg/mL] | MIC [24] [µg/mL] | MIC [25] [µg/mL] | further results
1 |  |  |  | C[C@@H](O)[C@H]1C(=O)N2C(C(=O)O)=C(S[C@@H]3CN[C@H](C(=O)N(C)C)C3)[C@H](C)[C@H]12 [MEROPENEM] |  |  |  |  |  |  |  |  |  |  | MIC [1]: < 0.03 µg/mL; MIC [2]: < 0.03 µg/mL; MIC [3]: 8 µg/mL (≈ 20.9 µM); MIC [4]: > 16 µg/mL; MIC [5]: < 0.03 µg/mL; MIC [6]: 1 µg/mL (≈ 2.61 µM); MIC [7]: ≤ 0.25 µg/mL; MIC [8]: > 16 µg/mL; MIC [9]: ≤ 0.25 µg/mL; MIC [10]: ≤ 0.25 µg/mL; MIC [11]: ≤ 0.25 µg/mL
2 | 4 | 16 | > 32 | CC[C@H](C)[C@H](NC(=O)[C@@H](NC(=O)[C@H](CO)NC(=O)[C@@H](NC(=O)CNC(=O)[C@H](Cc1ccccc1)N(C)C(=O)[C@@H](O)[C@@H](O)[C@H](CNC(=O)[C@H](NC(=O)[C@H](O)[C@H](C)O)[C@H](O)c1cncn1C)OC)C(C)(C)O)C(C)(C)O)C(=O)N[C@@H](CO)C(=O)O | 11 | 13 | 35 | 20 |  |  |  |  |  |  | Activity [19]: -1.9 log10CFU
3 |  |  |  | CO[C@@H](CNC(=O)[C@H](NC(=O)[C@H](O)[C@H](C)O)[C@H](O)c1cncn1C)[C@H](O)[C@H](O)C(=O)N(C)[C@@H](Cc1ccccc1)C(=O)NCC(=O)N[C@H](C(=O)N[C@@H](CO)C(=O)N[C@H](C(=O)N[C@H](C(=O)N[C@@H](CCC(=O)NCc1cc(=O)c(O)cn1O)C(=O)O)C(C)(C)C)C(C)(C)O)C(C)(C)O | 103 | 99 | 100 | 97 | -3.2 | 0.01 | 0.12 | 0.25 | > 32 | 0.5 | Activity [26]: Active; Activity [27]: Active; Activity [28]: Active
4 | 2 | 8 | > 32 | CO[C@@H](CNC(=O)[C@H](NC(=O)[C@H](O)[C@H](C)O)[C@H](O)c1cncn1C)[C@H](O)[C@H](O)C(=O)N(C)[C@@H](Cc1ccccc1)C(=O)NCC(=O)N[C@H](C(=O)N[C@@H](CO)C(=O)N[C@H](C(=O)N[C@@H](CC(C)C)C(=O)N[C@@H](CO)C(=O)NCCN)C(C)(C)O)C(C)(C)O |  |  |  |  |  |  |  |  |  |  | Activity [19]: -4.1 log10CFU
5 | 0.5 | 0.5 | > 32 | CO[C@@H](CNC(=O)[C@H](NC(=O)[C@H](O)[C@H](C)O)[C@H](O)c1cncn1C)[C@H](O)[C@H](O)C(=O)N(C)[C@@H](Cc1ccc(F)cc1)C(=O)NCC(=O)N[C@H](C(=O)N[C@@H](CO)C(=O)N[C@H](C(=O)N[C@H](C(=O)N[C@@H](CO)C(=O)O)C(C)(C)C)C(C)(C)O)C(C)(C)O | 109 | 84 | 89 | 109 |  |  |  |  |  |  | 
6 |  |  |  | CO[C@@H](CNC(=O)[C@H](NC(=O)[C@H](O)[C@H](C)O)[C@H](O)c1cncn1C)[C@H](O)[C@H](O)C(=O)N(C)[C@@H](Cc1ccccc1)C(=O)NCC(=O)N[C@H](C(=O)N[C@@H](CO)C(=O)N[C@H](C(=O)N[C@H](C(=O)N[C@@H](CO)C(=O)N[C@@H](CCC(=O)NCc1cc(=O)c(O)cn1O)C(=O)O)C(C)(C)C)C(C)(C)O)C(C)(C)O | 81 | 86 | 91 | 92 | -3.8 | < 0.01 | 0.12 | 0.06 | > 32 | 0.25 | Activity [26]: Active; Activity [27]: Active; Activity [28]: Active
7 |  |  |  | CO[C@@H](CNC(=O)[C@H](NC(=O)[C@H](O)[C@H](C)O)[C@H](O)c1cncn1C)[C@H](O)[C@H](O)C(=O)N(C)[C@@H](Cc1ccc(F)cc1)C(=O)NCC(=O)N[C@H](C(=O)N[C@@H](CO)C(=O)N[C@H](C(=O)N[C@H](C(=O)N[C@@H](CO)C(=O)NCc1cc(=O)c(O)cn1O)C(C)(C)C)C(C)(C)O)C(C)(C)O | 28 | 54 | 81 | 44 | -5.6 | < 0.01 | 2 | 0.125 | > 32 | 0.5 | 
8 | 0.125 | 0.25 | > 8 | CO[C@@H](CNC(=O)[C@H](NC(=O)[C@H](O)[C@H](C)O)[C@H](O)c1cncn1C)[C@H](O)[C@H](O)C(=O)N(C)[C@@H](Cc1ccc(F)cc1)C(=O)NCC(=O)N[C@H](C(=O)N[C@@H](CO)C(=O)N[C@H](C(=O)N[C@H](C(=O)N[C@@H](CO)C(=O)NCCN)C(C)(C)C)C(C)(C)O)C(C)(C)O | 92 |  |  | 105 | -5.6 |  |  |  |  |  | Stability ([13]; 4 h): 138%; Stability ([14]; 1 h): 127%
9 | > 64 | > 64 | > 32 | CO[C@@H](CNC(=O)[C@H](N)[C@H](O)c1cncn1C)[C@H](O)[C@H](O)C(=O)N(C)[C@@H](Cc1ccccc1)C(=O)NCC(=O)N[C@H](C(=O)N[C@@H](CO)C(=O)N[C@H](C(=O)N[C@@H](CC(C)C)C(=O)N[C@@H](CO)C(=O)O)C(C)(C)O)C(C)(C)O |  |  |  |  |  |  |  |  |  |  | 
10 | 32 | 64 | > 32 | CO[C@@H](CNC(=O)[C@H](NC(=O)[C@H](O)[C@H](C)O)[C@H](O)c1cncn1C)[C@H](O)[C@H](O)C(=O)N(C)[C@@H](Cc1ccccc1)C(=O)NCC(=O)N[C@H](C(=O)N[C@@H](CO)C(=O)N[C@@H](C)C(=O)N[C@@H](CC(C)C)C(=O)N[C@@H](CO)C(=O)O)C(C)(C)O |  |  |  |  |  |  |  |  |  |  | 
11 |  |  |  | CO[C@@H](CNC(=O)[C@H](NC(=O)[C@H](O)[C@H](C)O)[C@H](O)c1cncn1C)[C@H](O)[C@H](O)C(=O)N(C)[C@@H](Cc1ccc(F)cc1)C(=O)NCC(=O)N[C@H](C(=O)N[C@@H](CO)C(=O)N[C@H](C(=O)N[C@H](C(=O)N[C@@H](CO)C(=O)N[C@@H](CN)C(=O)NCc1cc(=O)c(O)cn1O)C(C)(C)C)C(C)(C)O)C(C)(C)O | 95 | 107 | 96 | 97 |  | 0.01 | 4 | 0.12 | > 32 | 0.5 | Activity [26]: Active; Activity [27]: Active; Activity [28]: Active
